The values below are quoted from earlier work in EP4602929A1, “ORAL PRODUCT WITH POWDER COATING” (Nicoventures Trading Limited, priority 2024, dated 2025).

As for `CC(/C=C/C=C(C)/C=C/C(=O)O)=C\C=C\C=C(C)\C=C\C=C(C)\C=C\C(=O)O` (stereo in doubt) [norbixin, (2E,4E,6E,8E,10E,12E,14E,16E,18E)-4,8,13,17-tetramethylicosa-2,4,6,8,10,12,14,16,18-nonaenedioic acid], the solubility in water result is “water soluble”. Consider `COC(=O)/C=C/C(C)=C\C=C\C(C)=C\C=C\C=C(C)\C=C\C=C(C)\C=C\C(=O)O` [bixin, (2E,4E,6E,8E,10E,12E,14E,16Z,18E)-20-methoxy-4,8,13,17-tetramethyl-20-oxoicosa-2,4,6,8,10,12,14,16,18-nonaenoic acid], for which the solubility in water entry was “insoluble in water”.
